Reference: ChEMBL document CHEMBL1132968, “Substituent effects on the antibacterial activity of nitrogen-carbon-linked (azolylphenyl)oxazolidinones with expanded activity against the fastidious gram-negative organisms Haemophilus influenzae and Moraxella catarrhalis” (2000)
≈ marks a conversion by molar mass, not a printed value.

Legend:
Assay type in all cases: functional
Haemophilus influenzae = test: Inhibitory activity against Haemophilus influenzae UC30063
Staphylococcus aureus [1] = test: Inhibitory activity against Methicillin-susceptible Staphylococcus aureus UC9213
Staphylococcus aureus [2] = test: Inhibitory activity against Methicillin-resistant Staphylococcus aureus UC6685
Moraxella catarrhalis = test: Inhibitory activity against Moraxella catarrhalis UC30610
Streptococcus pneumoniae = test: Inhibitory activity against Streptococcus pneumoniae UC9912
Enterococcus faecalis = test: Inhibitory activity against Enterococcus faecalis UC9217
[3] = test system: Staphylococcus epidermidis; test: Inhibitory activity against Methicillin-resistant Staphylococcus epidermidis UC12084

SMILES	MIC (Haemophilus influenzae) [µg/mL]	MIC (Staphylococcus aureus [1]) [µg/mL]	MIC (Staphylococcus aureus [2]) [µg/mL]	MIC (Moraxella catarrhalis) [µg/mL]	MIC (Streptococcus pneumoniae) [µg/mL]	MIC (Enterococcus faecalis) [µg/mL]	MIC [3] [µg/mL]
CC(=O)NC[C@H]1CN(c2ccc(-n3nnc(/C=N/O)n3)c(F)c2)C(=O)O1	16 (≈ 44 µM)	4 (≈ 11 µM)	4 (≈ 11 µM)	8 (≈ 22 µM)	0.5 (≈ 1.38 µM)	4 (≈ 11 µM)	1 (≈ 2.75 µM)
CC(=O)NC[C@H]1CN(c2ccc(-n3cnc(CO)n3)c(F)c2)C(=O)O1	16 (≈ 45.8 µM)	16 (≈ 45.8 µM)	16 (≈ 45.8 µM)	8 (≈ 22.9 µM)	1 (≈ 2.86 µM)	16 (≈ 45.8 µM)	2 (≈ 5.73 µM)
CC(=O)NC[C@H]1CN(c2ccc(-n3ncnn3)c(F)c2)C(=O)O1	8 (≈ 25 µM)	2 (≈ 6.24 µM)	2 (≈ 6.24 µM)	8 (≈ 25 µM)	0.5 (≈ 1.56 µM)	1 (≈ 3.12 µM)	1 (≈ 3.12 µM)
CC(=O)NC[C@H]1CN(c2ccc(-n3cnc(C=O)n3)c(F)c2)C(=O)O1	8 (≈ 23 µM)	4 (≈ 11.5 µM)	2 (≈ 5.76 µM)	8 (≈ 23 µM)	0.5 (≈ 1.44 µM)	4 (≈ 11.5 µM)	0.5 (≈ 1.44 µM)
CC(=O)NC[C@H]1CN(c2ccc(-n3cc(CO)nn3)c(F)c2)C(=O)O1	4 (≈ 11.5 µM)	4 (≈ 11.5 µM)	4 (≈ 11.5 µM)	2 (≈ 5.73 µM)	0.25 (≈ 0.716 µM)	2 (≈ 5.73 µM)	0.5 (≈ 1.43 µM)
CC(=O)NC[C@H]1CN(c2ccc(-n3ccc(C(N)=O)c3)c(F)c2)C(=O)O1	> 16	16 (≈ 44.4 µM)	8 (≈ 22.2 µM)	> 16	0.25 (≈ 0.694 µM)	4 (≈ 11.1 µM)	1 (≈ 2.78 µM)
CC(=O)NC[C@H]1CN(c2ccc(-n3ccc(NC(=O)CO)n3)c(F)c2)C(=O)O1	> 16	16 (≈ 40.9 µM)	16 (≈ 40.9 µM)	> 16	1 (≈ 2.56 µM)	8 (≈ 20.4 µM)	4 (≈ 10.2 µM)
CC(=O)NC[C@H]1CN(c2ccc(-n3ccc(NC(C)=O)n3)c(F)c2)C(=O)O1	> 16	8 (≈ 21.3 µM)	8 (≈ 21.3 µM)	> 16	0.5 (≈ 1.33 µM)	4 (≈ 10.7 µM)	2 (≈ 5.33 µM)
CC(=O)NC[C@H]1CN(c2ccc(-n3cc(C(N)=O)nn3)c(F)c2)C(=O)O1	> 16	4 (≈ 11 µM)	4 (≈ 11 µM)	8 (≈ 22.1 µM)	0.5 (≈ 1.38 µM)	8 (≈ 22.1 µM)	1 (≈ 2.76 µM)
CC(=O)NC[C@H]1CN(c2ccc(-n3nccn3)c(F)c2)C(=O)O1	> 16	4 (≈ 12.5 µM)	2 (≈ 6.26 µM)	> 16	1 (≈ 3.13 µM)	4 (≈ 12.5 µM)	1 (≈ 3.13 µM)
CO/N=C(/C)c1ccn(-c2ccc(N3C[C@H](CNC(C)=O)OC3=O)cc2F)c1	> 16	4 (≈ 10.3 µM)	2 (≈ 5.15 µM)	8 (≈ 20.6 µM)	0.5 (≈ 1.29 µM)	2 (≈ 5.15 µM)	1 (≈ 2.57 µM)
CC(=O)NC[C@H]1CN(c2ccc(-n3ccc(C(C)O)c3)c(F)c2)C(=O)O1 (stereo not given in full)	> 16	16 (≈ 44.3 µM)	16 (≈ 44.3 µM)	> 16	2 (≈ 5.53 µM)	8 (≈ 22.1 µM)	4 (≈ 11.1 µM)
CC(=O)NC[C@H]1CN(c2ccc(-n3cc(C#C[Si](C)(C)C)cn3)c(F)c2)C(=O)O1	> 16	4 (≈ 9.65 µM)	4 (≈ 9.65 µM)	> 16	2 (≈ 4.82 µM)	8 (≈ 19.3 µM)	2 (≈ 4.82 µM)
CC(=O)NC[C@H]1CN(c2ccc(-n3nnc(C=O)n3)c(F)c2)C(=O)O1	16 (≈ 45.9 µM)	8 (≈ 23 µM)	4 (≈ 11.5 µM)	16 (≈ 45.9 µM)	1 (≈ 2.87 µM)	16 (≈ 45.9 µM)	2 (≈ 5.74 µM)
CC(=O)NC[C@H]1CN(c2ccc(-n3ccc(C#N)n3)c(F)c2)C(=O)O1	16 (≈ 46.6 µM)	1 (≈ 2.91 µM)	1 (≈ 2.91 µM)	8 (≈ 23.3 µM)	0.5 (≈ 1.46 µM)	2 (≈ 5.83 µM)	0.5 (≈ 1.46 µM)
CC(=O)NC[C@H]1CN(c2ccc(-n3cc(/C=N/O)nn3)c(F)c2)C(=O)O1	> 16	8 (≈ 22.1 µM)	2 (≈ 5.52 µM)	8 (≈ 22.1 µM)	0.5 (≈ 1.38 µM)	8 (≈ 22.1 µM)	1 (≈ 2.76 µM)
C#Cc1cnn(-c2ccc(N3C[C@H](CNC(C)=O)OC3=O)cc2F)c1	> 16	2 (≈ 5.84 µM)	2 (≈ 5.84 µM)	8 (≈ 23.4 µM)	0.5 (≈ 1.46 µM)	2 (≈ 5.84 µM)	1 (≈ 2.92 µM)
CC(=O)NC[C@H]1CN(c2ccc(-n3cc(I)cn3)c(F)c2)C(=O)O1	> 16	2 (≈ 4.5 µM)	2 (≈ 4.5 µM)	8 (≈ 18 µM)	0.5 (≈ 1.13 µM)	2 (≈ 4.5 µM)	1 (≈ 2.25 µM)
CC(=O)NC[C@H]1CN(c2ccc(-n3cnc(C#N)n3)c(F)c2)C(=O)O1	16 (≈ 46.5 µM)	4 (≈ 11.6 µM)	2 (≈ 5.81 µM)	16 (≈ 46.5 µM)	1 (≈ 2.9 µM)	4 (≈ 11.6 µM)	2 (≈ 5.81 µM)
CC(=O)NC[C@H]1CN(c2ccc(-n3cc(/C(C)=N\O)nn3)c(F)c2)C(=O)O1	16 (≈ 42.5 µM)	4 (≈ 10.6 µM)	4 (≈ 10.6 µM)	4 (≈ 10.6 µM)	0.5 (≈ 1.33 µM)	8 (≈ 21.3 µM)	2 (≈ 5.31 µM)

SMILES	MIC (Haemophilus influenzae) [µg/mL]	MIC (Staphylococcus aureus [1]) [µg/mL]	MIC (Staphylococcus aureus [2]) [µg/mL]	MIC (Moraxella catarrhalis) [µg/mL]	MIC (Streptococcus pneumoniae) [µg/mL]	MIC (Enterococcus faecalis) [µg/mL]	MIC [3] [µg/mL]
CNC(=O)c1cn(-c2ccc(N3C[C@H](CNC(C)=O)OC3=O)cc2F)nn1	> 16	8 (≈ 21.3 µM)	4 (≈ 10.6 µM)	> 16	1 (≈ 2.66 µM)	8 (≈ 21.3 µM)	2 (≈ 5.31 µM)
CC(=O)NC[C@H]1CN(c2ccc(-n3nnc(C#N)n3)c(F)c2)C(=O)O1	16 (≈ 46.3 µM)	2 (≈ 5.79 µM)	1 (≈ 2.9 µM)	4 (≈ 11.6 µM)	0.5 (≈ 1.45 µM)	2 (≈ 5.79 µM)	0.5 (≈ 1.45 µM)
CC(=O)NC[C@H]1CN(c2ccc(-n3ccc(NS(C)(=O)=O)n3)c(F)c2)C(=O)O1	> 16	> 16		> 16	4 (≈ 9.72 µM)	> 16	4 (≈ 9.72 µM)
CC(=O)NC[C@H]1CN(c2ccc(-n3cnc(N)n3)c(F)c2)C(=O)O1	> 16	8 (≈ 23.9 µM)	4 (≈ 12 µM)	16 (≈ 47.9 µM)	1 (≈ 2.99 µM)	16 (≈ 47.9 µM)	2 (≈ 5.98 µM)
CC(=O)NC[C@H]1CN(c2ccc(-n3ccc(=O)[nH]3)c(F)c2)C(=O)O1	16 (≈ 47.9 µM)	8 (≈ 23.9 µM)	8 (≈ 23.9 µM)	8 (≈ 23.9 µM)	1 (≈ 2.99 µM)	8 (≈ 23.9 µM)	1 (≈ 2.99 µM)
CNC(=O)c1cnn(-c2ccc(N3C[C@H](CNC(C)=O)OC3=O)cc2F)c1	> 16	> 16		16 (≈ 42.6 µM)	0.5 (≈ 1.33 µM)	16 (≈ 42.6 µM)	2 (≈ 5.33 µM)
CC(=O)NC[C@H]1CN(c2ccc(-n3ccc(C(F)(F)F)n3)c(F)c2)C(=O)O1	> 16	4 (≈ 10.4 µM)	4 (≈ 10.4 µM)	> 16	1 (≈ 2.59 µM)	8 (≈ 20.7 µM)	2 (≈ 5.18 µM)
CC(=O)NC[C@H]1CN(c2ccc(-n3cc(NC(C)=O)cn3)c(F)c2)C(=O)O1	> 16	> 16	16 (≈ 42.6 µM)	> 16	1 (≈ 2.66 µM)	16 (≈ 42.6 µM)	2 (≈ 5.33 µM)
CC(=O)NC[C@H]1CN(c2ccc(-n3ccc(N)n3)c(F)c2)C(=O)O1	16 (≈ 48 µM)	2 (≈ 6 µM)	4 (≈ 12 µM)	16 (≈ 48 µM)	0.5 (≈ 1.5 µM)	4 (≈ 12 µM)	1 (≈ 3 µM)
CC(=O)NC[C@H]1CN(c2ccc(-n3cnc(C)n3)c(F)c2)C(=O)O1	> 16	8 (≈ 24 µM)	4 (≈ 12 µM)	16 (≈ 48 µM)	1 (≈ 3 µM)	8 (≈ 24 µM)	2 (≈ 6 µM)
CC(=O)NC[C@H]1CN(c2ccc(-n3cnc(NC(=O)Cc4ccccc4)n3)c(F)c2)C(=O)O1	> 16	> 16		> 16	2 (≈ 4.42 µM)	> 16	> 16
CC(=O)NC[C@H]1CN(c2ccc(-n3cnc(C(N)=O)n3)c(F)c2)C(=O)O1	> 16	> 16		16 (≈ 44.2 µM)	2 (≈ 5.52 µM)	> 16	16 (≈ 44.2 µM)
CC(=O)NC[C@H]1CN(c2ccc(-n3ccc(CCCO)c3)c(F)c2)C(=O)O1	> 16	4 (≈ 10.7 µM)	4 (≈ 10.7 µM)	8 (≈ 21.3 µM)	0.5 (≈ 1.33 µM)	2 (≈ 5.33 µM)	1 (≈ 2.66 µM)
CC(=O)NC[C@H]1CN(c2ccc(-n3cnc(C#N)c3)c(F)c2)C(=O)O1	8 (≈ 23.3 µM)	4 (≈ 11.7 µM)	4 (≈ 11.7 µM)	4 (≈ 11.7 µM)	0.25 (≈ 0.728 µM)	2 (≈ 5.83 µM)	0.5 (≈ 1.46 µM)
CC(=O)NC[C@H]1CN(c2ccc(-n3ccc(OC(C)=O)n3)c(F)c2)C(=O)O1	16 (≈ 42.5 µM)	8 (≈ 21.3 µM)	8 (≈ 21.3 µM)	8 (≈ 21.3 µM)	1 (≈ 2.66 µM)	8 (≈ 21.3 µM)	1 (≈ 2.66 µM)
COc1ccn(-c2ccc(N3C[C@H](CNC(C)=O)OC3=O)cc2F)n1	16 (≈ 45.9 µM)	8 (≈ 23 µM)	8 (≈ 23 µM)	16 (≈ 45.9 µM)	2 (≈ 5.74 µM)	16 (≈ 45.9 µM)	2 (≈ 5.74 µM)
CC(=O)NC[C@H]1CN(c2ccc(-n3ccc(C)n3)c(F)c2)C(=O)O1	> 16	4 (≈ 12 µM)	4 (≈ 12 µM)	16 (≈ 48.1 µM)	1 (≈ 3.01 µM)	4 (≈ 12 µM)	1 (≈ 3.01 µM)
CCOC(=O)CCc1ccn(-c2ccc(N3C[C@H](CNC(C)=O)OC3=O)cc2F)c1	> 16	4 (≈ 9.58 µM)	4 (≈ 9.58 µM)	2 (≈ 4.79 µM)	0.5 (≈ 1.2 µM)	2 (≈ 4.79 µM)	1 (≈ 2.4 µM)
CC(=O)NC[C@H]1CN(c2ccc(-n3ccc(NC(=O)OC(C)(C)C)n3)c(F)c2)C(=O)O1	> 16	4 (≈ 9.23 µM)	2 (≈ 4.61 µM)	8 (≈ 18.5 µM)	0.5 (≈ 1.15 µM)	2 (≈ 4.61 µM)	2 (≈ 4.61 µM)
COC(=O)c1ncn(-c2ccc(N3C[C@H](CNC(C)=O)OC3=O)cc2F)n1	> 16	> 16		> 16	4 (≈ 10.6 µM)	> 16	4 (≈ 10.6 µM)
